US11028079B2 (ConverGene LLC, priority 2015, dated 2021)

target: T1, BRD4 bromodomains (Homo sapiens, UniProt O60885); assay: BROMOscan bromodomain competition binding assay (DiscoveRx); settings: Kd from 11 compound concentrations ranging from 0 to 10 μM, read-out: BROMOscan Relative Activity
T1 construct: fused on or other part: T7 phage capsid protein (phage-display fusion; the phage DNA is read out by qPCR)
Protocol: Bromodomain assays were conducted to measure interactions between certain compounds and bromodomains.
The assays were conducted according to BROMOscan protocol from Discover Rx. Briefly, BRD4 bromodomains expressed as a fusion capsid protein of T7 phage were bound to acetylated peptide ligand on a solid phase and competition bindings were performed. T7 phage strains displaying bromodomains were grown in parallel in 24-well blocks in an E. coli host derived from the BL21 strain. E. coli were grown to log-phase and infected with T7 phage from a frozen stock (multiplicity of infection=0.4) and incubated with shaking at 32° C. until lysis (90-150 minutes). The lysates were centrifuged (5,000×g) and filtered (0.2 μm) to remove cell debris. […] The liganded beads were blocked with excess biotin and washed with blocking buffer (SeaBlock (Pierce), 1% BSA, 0.05% Tween 20, 1 mM DTT) to remove unbound ligand and to reduce non-specific phage binding. […] Test compounds were prepared as 1000× stocks in 100% DMSO and subsequently diluted 1:10 in monoethylene glycol (MEG) to create stocks at 100× the screening concentration (resulting stock solution is 10% DMSO/90% MEG). The compounds were then diluted directly into the assays such that the final concentration of DMSO and MEG were 0.1% and 0.9%, respectively. All reactions were performed in polystyrene 96-well plates in a final volume of 0.135 ml. […] The bromodomain concentration in the eluates was measured by qPCR. Data was collected at 11 compound concentrations ranging from 0 to 10 μM. Kd values were then derived from a standard dose-response curve generated with Hill equation (Hill Slope was set to ˜1) and a non-linear least square fit with the Levenberg-Marquardt algorithm. Response=Background+Signal−Background/1+(Kd Hill Slope/Dose Hill Slope)

Kd [nM] | Structure (SMILES)
500 to 5000 | Cc1noc(C)c1-c1ccc2nc(C(=O)N3CCc4[nH]ncc4C3)cc(NCc3cccc(Cl)c3)c2c1 [Example 288, (4-((3-chlorobenzyl)amino)-6-(3,5-dimethylisoxazol-4-yl)quinolin-2-yl)(1,4,6,7-tetrahydro-5H-pyrazolo[4,3-c]pyridin-5-yl)methanone]
500 to 5000 | Cc1noc(C)c1-c1ccc2nc(N3CCS(=O)(=O)CC3)nc(NCc3cccc(Cl)c3)c2c1 [Example 243, 4-(4-((3-chlorobenzyl)amino)-6-(3,5-dimethylisoxazol-4-yl)quinazolin-2-yl)thiomorpholine 1,1-dioxide]
500 to 5000 | Cc1cc(NC(=O)c2nc(NCc3cccc(Cl)c3)c3cc(-c4c(C)noc4C)ccc3n2)cc(C)n1 [Example 224, 4-((3-chlorobenzyl)amino)-6-(3,5-dimethylisoxazol-4-yl)-N-(2,6-dimethylpyridin-4-yl)quinazoline-2-carboxamide]
500 to 5000 | Cc1noc(C)c1-c1ccc2nc(C(=O)NCC3CC(F)(F)C3)nc(NCc3cccc(Cl)c3)c2c1 [Example 256, 4-((3-chlorobenzyl)amino)-N-((3,3-difluorocyclobutyl)methyl)-6-(3,5-dimethylisoxazol-4-yl)quinazoline-2-carboxamide]
500 to 5000 | Cn1cc(-c2ccc3nc(-c4cnn(CCO)c4)nc(NCc4cccc(Cl)c4)c3c2)ccc1=O [Example 114, 5-(4-((3-chlorobenzyl)amino)-2-(1-(2-hydroxyethyl)-1H-pyrazol-4-yl)quinazolin-6-yl)-1-methylpyridin-2(1H)-one]

More lines, now with the values behind:

Structure (SMILES) | Kd [nM]
Cc1noc(C)c1-c1ccc2nc(C(=O)NC3CCOCC3)nc(NCc3cccc(Cl)c3)c2c1 [Example 226, 4-((3-chlorobenzyl)amino)-6-(3,5-dimethylisoxazol-4-yl)-N-(tetrahydro-2H-pyran-4-yl)quinazoline-2-carboxamide] | < 500
Cc1noc(C)c1-c1ccc2nc(N3CCN(CCN(C)C)CC3)nc(NCc3cncc(Cl)c3)c2c1 [Example 81, N-((5-chloropyridin-3-yl)methyl)-2-(4-(2-(dimethylamino)ethyl)piperazin-1-yl)-6-(3,5-dimethylisoxazol-4-yl)quinazolin-4-amine] | < 500
CNC(=O)C1CCN(c2ncnc3ccc(-c4c(C)noc4C)cc23)CC1 [Example 270, 1-(6-(3,5-dimethylisoxazol-4-yl)quinazolin-4-yl)-N-methylpiperidine-4-carboxamide] | < 500
Cc1noc(C)c1-c1ccc2nc(N3CCN(C(=O)N(C)C)CC3)nc(NCc3cncc(Cl)c3)c2c1 [Example 248, 4-(4-(((5-chloropyridin-3-yl)methyl)amino)-6-(3,5-dimethylisoxazol-4-yl)quinazolin-2-yl)-N,N-dimethylpiperazine-1-carboxamide] | < 500
Cc1noc(C)c1-c1ccc2nc(N3CCN(S(C)(=O)=O)CC3)nc(NCc3cncc(Cl)c3)c2c1 [Example 152, N-((5-chloropyridin-3-yl)methyl)-6-(3,5-dimethylisoxazol-4-yl)-2-(4-(methylsulfonyl)piperazin-1-yl)quinazolin-4-amine] | < 500
Cc1noc(C)c1-c1ccc2nc(N3CCN(CCN(C)C)CC3)nc(NCc3cccs3)c2c1 [Example 71, 2-(4-(2-(dimethylamino)ethyl)piperazin-1-yl)-6-(3,5-dimethylisoxazol-4-yl)-N-(thiophen-2-ylmethyl)quinazolin-4-amine] | < 500
Cc1noc(C)c1-c1ccc2nc(N3CCN(CCN(C)C)CC3)nc(N3CCC3c3ccccc3)c2c1 (stereo not shown) [Example 179, 2-(4-(6-(3,5-dimethylisoxazol-4-yl)-4-(2-phenylazetidin-1-yl)quinazolin-2-yl)piperazin-1-yl)-N,N-dimethylethanamine] | < 500
Cc1csc(CNc2nc(N3CCN(CCN(C)C)CC3)nc3ccc(-c4c(C)noc4C)cc23)c1 [Example 87, 2-(4-(2-(dimethylamino)ethyl)piperazin-1-yl)-6-(3,5-dimethylisoxazol-4-yl)-N-((4-methylthiophen-2-yl)methyl)quinazolin-4-amine] | < 500
